From patent US7273875B2, “Naphthyridine derivatives, their preparation and their use as phosphodiesterase isoenzyme 4 (PDE4) inhibitors” (Novartis AG, priority 2001, dated 2007)
Where a name gives a salt, the structure may show the parent alone.

Assays:
human PDE4D = molecular target: T1, human PDE4D (Homo sapiens, UniProt Q08499); test: PDE4 isoenzyme inhibition assay (SPA), PDE4D; type: biochemical; settings: [3H]-cAMP, 1 μM cAMP, 30-60 minutes at room temperature, 1% DMSO
T1 construct: PDE4 cDNA constructs containing the coding regions of the three isoenzymes; made in house; host or cells: Sf21 insect cells (baculovirus, Bac-To-Bac)
T1 sequence (Q08499 1-673 isoform Q08499-2): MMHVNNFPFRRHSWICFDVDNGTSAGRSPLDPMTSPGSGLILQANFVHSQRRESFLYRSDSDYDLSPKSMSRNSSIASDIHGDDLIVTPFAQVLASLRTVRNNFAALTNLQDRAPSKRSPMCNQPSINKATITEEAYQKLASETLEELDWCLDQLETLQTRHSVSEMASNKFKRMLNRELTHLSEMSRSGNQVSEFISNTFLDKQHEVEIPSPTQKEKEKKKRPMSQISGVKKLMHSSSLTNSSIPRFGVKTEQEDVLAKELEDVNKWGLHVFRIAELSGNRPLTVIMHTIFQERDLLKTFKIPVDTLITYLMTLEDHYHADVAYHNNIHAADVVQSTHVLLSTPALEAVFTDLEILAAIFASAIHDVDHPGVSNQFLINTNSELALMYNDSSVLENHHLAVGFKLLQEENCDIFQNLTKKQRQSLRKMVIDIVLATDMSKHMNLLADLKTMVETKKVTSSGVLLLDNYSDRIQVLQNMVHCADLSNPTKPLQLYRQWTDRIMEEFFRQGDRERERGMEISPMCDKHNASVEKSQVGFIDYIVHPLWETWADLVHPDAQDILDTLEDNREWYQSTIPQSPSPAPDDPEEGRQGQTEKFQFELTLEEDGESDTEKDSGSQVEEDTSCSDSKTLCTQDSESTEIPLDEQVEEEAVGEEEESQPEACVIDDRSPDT
Excerpt: PDE4 Isoenzyme Inhibition Assay
Cloning: GATEWAY flanked PDE4 cDNA constructs containing the coding regions of the three isoenzymes, human PDE4A, human PDE4B, and human PDE4D are generated by PCR and transposed into the GATEWAY shuttle vector pDONOR-201. In addition a 6-histidine tag is introduced by PCR onto the carboxyl terminal end of each of the constructs to facilitate protein purification. Following sequence verification, the PDE4 constructs are transposed into the GATEWAY expression vector pDEST-8, Positive recombinants are selected and transposed into E. coli strain DH10Bac and bacmid produced transfected into SF21 cells using Bac-To-Bac (Invitrogen Life Technologies). Positive transfections are selected and used to generate high titer viral stocks for use in protein expression.
PDE4 Expression: Sf21 cells are grown to a density of 2×10^6 cells/ml and infected with human PDE4A, PDE4B or PDE4D3 containing baculovirus to a multiplicity of infection (m.o.i.) of 1 for 72 hours. The infected cells are harvested by centrifugation at 1,400 g for 4 minutes at 4° C. and the cell pellets are frozen at −80° C. Sf21 (Spodoptera frugiperda 21) insect cells are routinely maintained at densities between […] and 3×10^6 cells/ml in SF00 Serum Free Medium (Invitorgen Life Technologies). Sf21 cells ([…]) are resuspended in 100 ml cold (4° C.) Lysis Buffer (50 mM Na2HPO4, 200 mM NaCl, 10 mM Imidazole). Cells are incubated on ice for 30 minutes then centrifuged at 15,000 g for 20 minutes at 4° C.
PDE4 Purification: The 6 Histidine-tagged PDE4 proteins are isolated from crude cell lysates by a batch-wise Ni-NTA purification strategy (QIAGEN). N-NTA resin is first pre-rinsed to remove ethanol preservative and equilibrated with Lysis Buffer. Cell lysate is added, (10 ml 50% Ni-NTA slurry resin per 50 ml lysate), and gently rotated on a mixer at 4° C. for 1-2 hours. The sample is then centrifuged at 1,000 g for 5 minutes at 4° C. using Denley benchtop centrifuge. The supernatant is removed and the resin is washed 3 times with 50 ml ice cold Wash Buffer (50 mM Na2HPO4, 300 mM NaCl and 20 mM imidazole) followed by centrifugation at 1,000 g for 5 min at 4° C. The 6His-tagged protein is eluted from the resin with 3×5 ml ice cold Elution Buffer (50 mM NaH2PO4, 300 mM NaCl, 250 mM imidazole) and collected by centrifugation at 1,000 g for 5 minutes at 4° C. The supernatants are then pooled before buffer exchange and concentration using a VivaScience 20 ml SK 0.2 μM Concentrator. Samples are aliquoted and stored at −20° C.
PDE4 Assay: The assay is based on Amersham Pharmacia Biotech Scintillation Proximity Assay (SPA) technology. Enzyme is diluted with enzyme dilution buffer (10 mM Tris-HCl, pH7.5 containing 1 mM EDTA) in order to obtain between 10-30% total substrate hydrolysis during the assay. The enzymatic reaction is started by adding 10 μl diluted enzyme to 80 μl substrate (0.1 μCi [3H]-cAMP, 1 μM cAMP) and 10 μl inhibitor solution in a 96-well microtiter plate. After 30-60 minutes incubation at room temperature the reaction is stopped by adding 50 μl PDE SPA beads (20 mg/ml). After 30 minutes the plate is centrifuged (3000 g, 10 minutes) and counted (Packard TopCount).
Inhibitor stock solutions are prepared in 100% dimethylsulphoxide (DMSO) and diluted with DMSO/water to achieve 10 concentrations to cover the range of 0-100% inhibition. The concentration of DMSO is kept constant at 1% (v/v) throughout the assay.
The concentration at which 50% inhibition occurs (IC50) is determined from inhibition—concentration curves in a conventional manner.

Compound | IC50 (human PDE4D) [nM] | melting point [°C]
CSc1cccc(-c2nc(C3CCC(C(=O)O)CC3)cc3cccnc23)c1 (stereo not drawn) [Example 15, 4-[8-(3-Methylsulfanyl-phenyl)-[1,7]naphthyridin-6-yl]-cyclohexanecarboxylic acid] | 9 | 177.6 to 178.2
O=C(O)C1CCC(c2cc3cccnc3c(-c3cccc(OC(F)(F)F)c3)n2)CC1 (stereo not drawn) [Example 14, 4-[8-(3-Trifluoromethoxyphenyl)-[1,7]naphthyridin-6-yl]-cyclohexanecarboxylic acid] | 57 | 
COc1cccc(-c2nc(C3CCC(C(=O)O)CC3)cc3cccnc23)c1 (stereo not drawn) [Example 10, 4-[8-(3-Methoxy-phenyl)-[1,7]naphthyridin-6-yl]-cyclohexanecarboxylic acid] | 25 | 209 to 212
N#Cc1cccc(-c2nc(C3CCC(C(=O)O)CC3)cc3cccnc23)c1 (stereo not drawn) (as salt: potassium) [Example 3, 4-[8-(3-Cyano-phenyl)-[1,7]naphthyridin-6-yl]-cyclohexanecarboxylic acid] |  | > 250
CCOC(=O)C1CCC(c2cc3cccnc3c(-c3cccc(C#N)c3)n2)CC1 (stereo not drawn) [Example 1, 4[8-(3-Cyano-phenyl)-[1,7]naphthyridin-6-yl]-cyclohexanecarboxylic acid ethyl ester] | 38 | 
N#Cc1cccc(-c2nc(C3CCC(C(=O)O)CC3)cc3cccnc23)c1 (stereo not drawn) [Example 3, 4-[8-(3-Cyano-phenyl)-[1,7]naphthyridin-6-yl]-cyclohexanecarboxylic acid] | 9 | 
O=C(O)C1CCC(c2cc3cccnc3c(-c3cccc(F)c3)n2)CC1 (stereo not drawn) [Example 12, 4-[8-(3-Fluorophenyl)-[1,7]naphthyridin-6-yl]-cyclohexanecarboxylic acid] | 21 | 
